Experimental findings from patent US11576979B2, “Pyrrolobenzodiazepine prodrugs and antibody conjugates thereof” (GENENTECH, INC., priority 2016, dated 2023) are described below.

Each structure is given as a SMILES string. Several values for one entry are separate records, joined by “and”; a condition that tells them apart may be missing. Equal entries are not always repeated.

The term IC50 denotes the concentration that gives 50% inhibition.

One data set has as its target T1, DT Diaphorase (Homo sapiens, UniProt P15559).
T1 construct: purchased Sigma D1315
As to the kind of experiment: in vitro DT diaphorase activated drug release assay (NADPH depletion). Type of data set: biochemical. The conditions noted are these: 90 min. The method, then: An in vitro DT diaphorase activated drug release assay was used to measure NADPH depletion. DT diaphorase activated release of Norfloxacin and Payload (PBD) was measured by the in vitro depletion of NADPH. The assay method was modified from the absorbance measurement of NADPH at A340 (Osman et. al, Chemico-Biological Interactions 147 (2004) 99-108) due to the interference of compounds. The depletion of NADPH was measured by monitoring the decrease of fluorescence intensity of NADPH at 480 nm after being excited at […]. […] Prior to assay, dilute the stock to 1 mM as the 5× working solution; (5) DT Diaphorase specific Inhibitor: prepare 40 mM stock of Dicumarol (Sigma, Cat #M1390-5G, MW=336.29) in 0.13 N NaOH, stored at 4° C. Dilute the stock to 250 uM as the 5× working solution; (6) Compounds: dilute the Norfloxacin and PBD conjugated compounds in assay buffer to 250 uM as the 5× working solution; and (7) 384 well black plate with clear bottom. For the assay procedure: (1) The reaction mix containing 0.5 uM DT-D, 50 uM compound, […] NADPH was set up in a 384 well plate at 50 ul/well. For the control with DT Diaphorase inhibitor, Dicumarol was added in the reaction mix at final 50 uM for each compound. Reaction mix containing NADPH and compound only was also added as the baseline controls. The DT Diaphorase was added in the last step; and (2) The reaction mixes were incubated at room temperature for 5, 30, 90 min. The fluorescence intensity (RFU) of DNAPH was recorded on M1000 plate reader (Tecan) with excitation at 340 nm and emission at 480 nm. For data analysis, data was analyzed and plotted using Prism GraphPad 6. The depletion of NADPH was calculated by the formula below at reaction time point at 90 min wherein: % NADPH depletion=[…].

A further data set deals with WSU-DLCL2. As to the kind of experiment: CELLTITER GLO cell proliferation assay (Example 6). As to conditions: Homo sapiens, WSUDLCL2, read-out: IC50 potency WSU-DLCL2, Table 4; data in parenthesis = repeat evaluations. Type of data set: cell-based. The method, then: (§1) The toxicity of PBD monomer disulfide prodrugs and diaphorase prodrugs were evaluated against KPL-4, WSU-DLCL2, HCT-116, HCC1395 and Jurkat cell cultures. […] KPL-4 cells further have a high expression of DTD on the order of about 839 nRPKM (where nRPKM refers to normalized reads per Kb of transcript length per million mapped read).
(§2) Potency of the disulfide and DT-diaphorase prodrugs was measured by a cell proliferation assay employing the following protocol (CELLTITER GLO™ Luminescent Cell Viability Assay, Promega Corp.). First, an aliquot of 40 ul of cell culture containing about 8000 cells of WSU-DLCL2 cells (low NQO1 gene and GSH level), 4000 cells of KPL-4 (high NQO1 gene and GSH level), HCT-116 cells, HCC1395 cells or Jurkat cells in RPMI-1640 culture medium (supplemented with 10% fetal bovine serum, 2 mM glutamine, 50 uM cystine, and 0.015 g/L L-methionine) was deposited in each well of a 384-well flat clear bottom white polystyrene tissue culture-treated microplates (Corning, N.Y.). Second, control wells were prepared containing medium with and without cells. Third, compounds with and without disulfide or DT-diaphorase prodrugs (n=3) were added to the experimental wells using ECHO acoustic liquid handling technology (Labcyte Inc, Sunnyvale, Calif.) to create a 10-point dose-response curve in triplicate with 1:3× serial dilution. Fourth, cells were cultured in a humidified incubator set at 37° C. and maintaining an atmosphere of 5% CO2. Fifth, the plates were equilibrated to room temperature for approximately 30 minutes. Sixth, a volume of CELLTITER GLO™ Reagent equal to the volume of cell culture medium present in each well was added. Seventh, the contents were mixed for 10 minutes on an orbital shaker in the dark to induce cell lysis. Eighth, the plate was incubated at room temperature for 30 minutes to stabilize the luminescence signal. Ninth, luminescence was recorded and reported in graphs as % activity where RLU (relative luminescence units) was normalized to controls (no compound control minus no cell control). Tenth, data was plotted as individual points for each replicate (n=3) for each antibody as the mean of luminescence for each set of replicates, with standard deviation error bars.
For orientation: Cellular ATP, detected with luciferase, serves as a proxy for viable cell number.

The test system of a further data set is KPL-4. As to the kind of experiment: CELLTITER GLO cell proliferation assay (Example 6). As to conditions: KPL4, read-out: IC50 potency KPL-4, Table 4; data in parenthesis = repeat evaluations. The class given is cell-based. The method, then: as §1, §2
A further data set relates to Igrov-1. As to the kind of experiment: CellTiter-Glo toxicity, 4 days (Example 9). Type of data set: cell-based. As to conditions: Homo sapiens, IGROV-1, 96 h, 4 days of drug incubation; Table 7A. The method, then: (§3) The toxicity of various PBD monomer disulfide prodrugs and PBD dimer disulfide prodrugs was evaluated on UACC-257, Igrov-1 and A2058 cell lines. Cells were seeded in 384-well plate and treated with drug 24 hours later. After 4 days of drug incubation, the cell viability was determined using Promega CellTiter-Glo luminescent reagent, which measures ATP level (an indirect measure of cell number). The luminescent intensity was measured on PerkinElmer Envision reader. The relative cell viability was calculated by normalizing to non-drug treatment control and was graphed using KleidaGraph software package. IC50 value was determined as the concentration to obtain 50% of the maximum cell killing.

The next data set relates to UACC-257. As to the kind of experiment: CellTiter-Glo toxicity, 4 days (Example 9). Type of data set: cell-based. As to conditions: Homo sapiens, UACC-257, 96 h, 4 days of drug incubation; Table 7A. The method, then: as §3
A further data set deals with SK-BR-3. As to the kind of experiment: CellTiter-Glo toxicity, 3 days (Example 7). Type of data set: cell-based. The conditions noted are these: Homo sapiens, SK-BR-3, 72 h, read-out: SK-BR-3 IC50 (nM). The method, then:
The toxicity of PBD monomer disulfide prodrugs 1 to 4, PBD dimer disulfide prodrugs 1 and 4, PBD monomer control 1 and PBD dimer control 1 were evaluated against SK-BR-3 cell cultures. […] The HER2-positive breast cancer cell line, SK-BR-3, was obtained internally at Genentech after having been verified by sequence analysis. The cells were grown at 37 Celsius in DMEM+10% FBS supplemented with 2 mM L-glutamine for the duration of this assay. On the first day of the experiment, designated “Day −1”, SK-BR-3 cells were harvested from tissue culture flasks, counted, and then seeded into 96-well plates at a concentration of 7,500 cells per well. The next day, designated “Day 0”, cell culture media was removed from the cells and replaced with 100 uL of fresh media containing a serial dilution (1:3) of the compounds in Table 5 below. The plates were then returned to the 37 Celsius incubator and allowed to incubate for 3 days. On “Day 3” of the assay, the plates were removed from the incubator and allowed to equilibrate to room temperature before adding 100 uL of room-temperature CellTiter-Glo reagent (Promega). The plates were then agitated at 300 rpm for 10 minutes. The luminescence signal generated from this reaction was recorded on an Envision plate reader (Perkin-Elmer). The data were arranged in Excel (Microsoft) and graphed in Kaleidagraph (Synergy Software).

Data set [1] can be described thus: Disulfide cleavage by glutathione (GSH), LC/MS. The class given is physicochemical. As to conditions: 15 uM compound, 4 mM GSH, pH 7.0, 37 C. The method, then: (§4) For disulfide cleavage determination, the compounds were incubated at 15 μM with 0.2 mM cysteine or 4 mM GSH in 100 mM Tris buffer pH 7.0 containing 5% methanol at 37° C. Aliquots were taken at specified time points and the samples were analyzed by LC/MS on Sciex TripleTOF 5600 on a Hypersil Gold C18 column (100×2.1, 1.9 Thermo Scientific). The column was eluted by a gradient of buffer A (0.1% formic acid in 10 mM ammonium acetate) to buffer B (0.1% formic acid in 10 mM ammonium acetate in 90% acetonitrile), 5% B 0-0.5 min, 5-25% B 0.5-8 min, 25-75% B 8-13 min, and 75-95% B 13-13.5 min, 95% B 13.5-14.5 min, 95-5% B 14.5-15 min at 0.4 mL/min. All products were separated and characterized by LC/MS/MS in a positive ESI ion mode. All analytes had the protonated molecular MH+ as the major species with little source fragmentation. Full scan accurate mass peak areas were used to estimate relative abundance of each component.

Another data set concerns A2058. As to the kind of experiment: CellTiter-Glo toxicity, 4 days (Example 9). Type of data set: cell-based. The conditions noted are these: Homo sapiens, A2058, 96 h, 4 days of drug incubation; Table 7A. The method, then: as §3
A short description of data set [2]: Disulfide cleavage by cysteine, LC/MS. Type of data set: physicochemical. The conditions noted are these: 15 uM compound, 0.2 mM cysteine, pH 7.0, 37 C. The method, then:
as §4

Data set [3] is described as follows: GSH adduct formation and stability of quinones. Type of data set: physicochemical. The conditions noted are these: 25 uM, 15 mM GSH, pH 7.0, 37 C. The method, then: For degradation analysis, the compounds were incubated at 25 μM with 15 mM GSH in 200 mM Tris buffer pH 7.0 containing 5% methanol at 37° C. for 3 hours. The control incubations were conducted without GSH. The samples were analyzed by LC/MS on Sciex TripleTOF 5600 on a Hypersil Gold C18 column (100×2.1, 1.9 μM, Thermo Scientific). The column was eluted by a gradient of buffer A (0.1% formic acid in 10 mM ammonium acetate) to buffer B (0.1% formic acid in 10 mM ammonium acetate in 90% acetonitrile), 5% B 0-0.5 min, 5-25% B 0.5-8 min, 25-75% B 8-13 min, and 75-95% B 13-13.5 min, 95% B 13.5-14.5 min, 95-5% B 14.5-15 min at 0.4 mL/min. All products were separated and characterized by LC/MS/MS in a positive ESI ion mode. Full scan accurate mass peak areas were used to estimate relative abundance of each component.

T1 sequence (P15559 whole entry): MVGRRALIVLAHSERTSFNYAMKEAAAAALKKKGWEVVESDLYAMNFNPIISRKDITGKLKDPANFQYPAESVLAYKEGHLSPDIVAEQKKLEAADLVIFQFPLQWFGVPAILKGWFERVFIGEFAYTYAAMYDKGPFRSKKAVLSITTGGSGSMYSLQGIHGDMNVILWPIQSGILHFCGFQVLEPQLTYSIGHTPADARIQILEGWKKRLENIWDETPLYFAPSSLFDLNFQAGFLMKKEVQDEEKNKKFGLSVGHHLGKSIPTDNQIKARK

As to `C=C1C[C@H]2C(O)N(C(=O)OCc3ccc(NC(=O)OCc4cc5c(n4C)C(=O)C=C(OC)C5=O)cc3)c3cc(OC)c(OC)cc3C(=O)N2C1` (stereo partly shown) [PBD monomer diaphorase prodrug 3], the “NADPH Dep. (NADPH depletion at 90 minutes)” value on DT Diaphorase was greater than 90% at. Besides, the results for the IC50 in the data set with WSU-DLCL2 and with KPL-4 were 443 nM and 351 nM, respectively.

On to `C=C1C[C@H]2C(O)N(C(=O)OCC3(SSCC)CCC3)c3cc(OCCCCCOc4cc5c(cc4OC)C(=O)N4CC(=C)C[C@H]4C(O)N5C(=O)OCC4(SSCC)CCC4)c(OC)cc3C(=O)N2C1` (stereo partly shown) [PBD dimer disulfide prodrug 4], for which the results for the IC50 in the data set on Igrov-1, in the data set on UACC-257 and in the data set with SK-BR-3 were 2.5 nM, 7.8 nM and 3.09 nM, respectively.

`C=C1C[C@H]2C(O)N(C(=O)OCCSSC(C)C)c3cc(OC)c(OC)cc3C(=O)N2C1` (stereo partly shown) [PBD monomer disulfide prodrug 2]: the “% Remaining at 24 h by GSH” value in [1] is 0.4% and 0%. The IC50 is 635 nM in the data set on A2058; 1870 nM in the data set with Igrov-1; 1860 nM in the data set with UACC-257; 1760 nM with SK-BR-3; 1020 nM in the data set on WSU-DLCL2; 497 nM in the data set on KPL-4. In addition, the “% Remaining at 24 h by Cys” value in [2] is reported as 77.6%.

Turning to `C=C1C[C@H]2C(O)N(C(=O)OCCSSCC)c3cc(OC)c(OC)cc3C(=O)N2C1` (stereo partly shown) [PBD monomer disulfide prodrug 1], the “% Remaining at 24 h by GSH” value in [1] amounted to 0.5%. Besides, the IC50 was determined as 82.9 nM in the data set with A2058; 123 nM with Igrov-1; 276 nM in the data set on UACC-257; 331 nM in the data set with SK-BR-3; 274 nM with WSU-DLCL2; 324 nM with KPL-4. Besides, the “% Remaining at 24 h by Cys” value in data set [2] came to 17.9%.

Consider `C=C1C[C@H]2C(O)N(C(=O)OCC3(SSCC)CCC3)c3cc(OC)c(OC)cc3C(=O)N2C1` (stereo partly shown) [PBD monomer disulfide prodrug 3], for which the “% Remaining at 24 h by GSH” value in data set [1] is reported as 2.90%. In addition, the IC50 with A2058 came out at 75.2 nM; in the data set with Igrov-1, 254 nM; in the data set on UACC-257, 356 nM; in the data set with SK-BR-3 it was 616 nM; in the data set on WSU-DLCL2 it was 531 nM; with KPL-4 it was 360 nM. The “% Remaining at 24 h by Cys” value in data set [2] stood at 73.5%.

As for `C=C1C[C@H]2C(O)N(C(=O)OCC(C)(C)SSC(C)(C)C)c3cc(OC)c(OC)cc3C(=O)N2C1` (stereo partly shown) [PBD monomer disulfide prodrug 4], the “% Remaining at 24 h by GSH” value in data set [1] is given as 99.9%. Besides, the IC50 was 8110 nM with A2058; 12600 nM in the data set on Igrov-1; 19200 nM in the data set on UACC-257; greater than 10000 nM in the data set with SK-BR-3; greater than 10000 nM in the data set on WSU-DLCL2; greater than 10000 nM in the data set on KPL-4. Besides, the “% Remaining at 24 h by Cys” value in [2] is 99.9%.

For `COC(=O)c1c2c(n(C)c1CO)C(=O)C=C(OC)C2=O` [methyl 2-(hydroxymethyl)-5-methoxy-1-methyl-4,7-dioxo-4,7-dihydro-1H-indole-3-carboxylate], the “NADPH Dep. (NADPH depletion at 90 minutes)” value at DT Diaphorase was “None”. Further, the “% Rem. (percent remaining after 3 hours)” value in data set [3] is on record as 100%.
